What is called IC50 is the concentration needed to halve the response being measured.

NLRP3 inflammasome, sequence (Q96P20 whole entry, the tested form may be a part): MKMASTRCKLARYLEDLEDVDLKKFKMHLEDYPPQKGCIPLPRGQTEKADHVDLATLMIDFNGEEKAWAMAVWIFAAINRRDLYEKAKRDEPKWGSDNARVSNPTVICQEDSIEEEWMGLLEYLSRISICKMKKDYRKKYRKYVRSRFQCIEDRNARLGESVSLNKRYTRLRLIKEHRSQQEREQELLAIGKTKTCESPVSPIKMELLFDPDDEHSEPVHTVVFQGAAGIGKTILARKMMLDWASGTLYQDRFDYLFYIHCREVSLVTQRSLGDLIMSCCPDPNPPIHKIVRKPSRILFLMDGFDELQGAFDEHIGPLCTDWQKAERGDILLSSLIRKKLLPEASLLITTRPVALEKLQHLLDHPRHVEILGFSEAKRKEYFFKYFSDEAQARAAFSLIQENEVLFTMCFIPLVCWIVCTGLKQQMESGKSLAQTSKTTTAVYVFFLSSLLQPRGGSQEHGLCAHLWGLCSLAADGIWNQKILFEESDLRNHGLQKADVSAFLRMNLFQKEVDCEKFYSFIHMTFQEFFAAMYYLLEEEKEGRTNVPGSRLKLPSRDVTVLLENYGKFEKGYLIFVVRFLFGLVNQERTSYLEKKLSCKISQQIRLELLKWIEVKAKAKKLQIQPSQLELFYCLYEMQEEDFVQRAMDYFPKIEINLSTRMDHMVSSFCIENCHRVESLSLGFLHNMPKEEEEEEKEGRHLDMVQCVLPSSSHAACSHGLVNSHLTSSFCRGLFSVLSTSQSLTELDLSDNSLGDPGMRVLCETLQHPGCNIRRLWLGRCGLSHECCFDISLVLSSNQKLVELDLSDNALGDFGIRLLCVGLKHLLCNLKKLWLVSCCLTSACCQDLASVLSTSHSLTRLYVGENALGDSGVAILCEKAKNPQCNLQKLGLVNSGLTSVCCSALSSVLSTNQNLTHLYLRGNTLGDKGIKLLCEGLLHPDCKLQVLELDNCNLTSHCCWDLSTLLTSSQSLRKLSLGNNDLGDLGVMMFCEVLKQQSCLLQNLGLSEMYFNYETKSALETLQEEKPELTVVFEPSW

The experiment addresses NLRP3 inflammasome (Homo sapiens, UniProt Q96P20). The experiment can be described thus: THP-1 ASC-GFP speck assay. Also noted: host or cells: THP-1 ASC-GFP cells, PMA-differentiated, LPS-primed, nigericin-stimulated. As to conditions: THP-1 ASC-GFP cells, PMA differentiated, LPS primed, 10 μM nigericin; read-out: THP1 ASC Speck IC50. The class given is cell-based. The protocol: THP-1 ASC-GFP cell line was purchased from Invivogen, San Diego, for inflammasome activation assay. THP-1 ASC-GFP cells stably express a 37.6 kDa ASC::GFP fusion protein that enables monitoring of spec formation by microscopy after activation of NLRP3 dependent inflammasome pathway. Cells were maintained at a density of 600,000 cells/mL in growth media consisting of RPMI 1640, 2 mM L-glutamine, 25 mM HEPES and 10% heat inactivated fetal bovine serum at 37° C. and 5% CO2. Cells were passaged every 3-4 days and used for assays for up to 20 passages.
THP-1 ASC-GFP cells were collected by centrifuging cells at 800 RPM for 5 minutes. Cell culture supernatant was removed and cells were re-suspended in fresh media at density of 1×10^6 cells/mL in assay media consisting of RPMI 1640, 2 mM L-glutamine, 25 mM HEPES and 10% heat inactivated fetal bovine serum. Phorbol 12-myristate 13-acetate (PMA) (Invivogen, tlrl-pma) was added to the cell suspension at a final concentration of 500 ng/ml and mixed thoroughly. 40,000 cells were added per well of a 384 well plate and differentiated into macrophages overnight at 37° C. and 5% CO2. Cells were primed with 1 μg/mL of lipopolysaccharide (Invivogen Ultrapure lipopolysaccharide from E. coli, tlrl-3pelps) in assay media for 3 hours at 37° C. and 5% CO2. After priming, media was removed and THP-1 ASC-GFP cells were preincubated with serially diluted test compounds with starting concentration of 40 μM followed by 2-fold dilution for a 20-point curve or vehicle (DMSO) for 30 min in assay media at 37° C. and 5% CO2. Cells were then stimulated with 10 μM nigericin (Invivogen, tlrl-nig-5) for 90 min at 37° C. and 5% CO2 to activate NLRP3 dependent inflammasome pathway and spec formation. After stimulation, cells were fixed with 4.8% paraformaldehyde (Electron Microscopy Sciences #15710-S) and incubated at room temperature for 15 min. Cells were then washed 3-times with 100 μL of phosphate buffered saline and permeabilized in the presence of premeablization/block buffer for 20 min at room temperature. Cells were then washed 3-times with 100 μL phosphate buffered saline and incubated for 1 hr at room temperature in the presence of hoechst. After staining with Hoechst, cells were washed 3-times with 100 μL phosphate buffered saline and imaged for ASC spec formation.
THP-1 ASC-GFP cells were imaged in 488 and Hoechst channels. Hoechst channel was used for cell count and 488 channel was used to identify number of GFP ASC specks in imaged fields. Percentage of cells with a spec was calculated by dividing the number of GFP positive spots by total number of cells.
Regarding `NS(=O)(=NC(=O)Nc1c2c(cc3c1CCC3)CCC2)c1cnn2c1NCCC2` (single isomer, unassigned) [Example 73], the IC50 was > 20000 nM.
The same measure for `COC1CCn2ncc(S(N)(=O)=NC(=O)Nc3c4c(cc5c3CCC5)CCC4)c2OC1` (single isomer, unassigned) [Example 87]: 2900 nM.
Next, `NS(=O)(=NC(=O)Nc1c2c(cc3c1CCC3)CCC2)c1cnn2c1C(F)(F)CCC2` (single isomer, unassigned) [Example 134]: > 20000 nM; `CC1(C)COc2c(S(N)(=O)=NC(=O)Nc3c4c(cc5c3CCC5)CCC4)cnn2C1` (single isomer, unassigned) [Example 80]: 4500 nM; `CO[C@H]1CCOc2c([S@@](=O)(=NC(=O)Nc3c4c(cc5c3CCC5)CCC4)NC#N)cnn2C1` (single isomer, unassigned) [Example 112]: 610 nM.
Next, `NS(=O)(=NC(=O)Nc1c2c(cc3c1CCC3)CCC2)c1cnn2c1COCCC2` (single isomer, unassigned) [Example 61]: > 20000 nM.
As to `COC1CCn2ncc(S(N)(=O)=NC(=O)Nc3c4c(cc5c3CCC5)CCC4)c2OC1` (single isomer, unassigned) [Example 86], the IC50 was > 20000 nM.
Next, `NS(=O)(=NC(=O)Nc1c2c(cc3c1CCC3)CCC2)c1cnn2c1NCCC2` (single isomer, unassigned) [Example 72]: 2500 nM.
With `CC1(C)COc2c(S(N)(=O)=NC(=O)Nc3c4c(cc5c3CC(F)C5)CCC4)cnn2C1` (single isomer, unassigned) [Example 155], the IC50 worked out at 8 nM.
The same measure for `CNC1CCOc2c(S(N)(=O)=NC(=O)Nc3c4c(cc5c3CCC5)CCC4)cnn2C1` (single isomer, unassigned) [Example 110]: 120 nM; for `CN(C)[C@@H]1COc2c([S@](=O)(=NC(=O)Nc3c4c(c(F)c5c3CCC5)CCC4)NC#N)cnn2C1` (single isomer, unassigned) [Example 111]: 100 nM; for `CC1CCc2cc3c(c(NC(=O)N=S(N)(=O)c4cnn5c4OCCC5)c21)CCC3` (single isomer, unassigned) [Example 126]: > 20000 nM.
Consider `CNC1COc2c(S(N)(=O)=NC(=O)Nc3c4c(c(F)c5c3CCC5)CCC4)cnn2C1` (single isomer, unassigned) [Example 82], for which the half-inhibitory concentration (IC50) came out at 270 nM.
Turning to `COc1cc(-c2cc(F)cc(C(C)C)c2NC(=O)N=S(N)(=O)c2cnn3c2OCCC3)ccn1` (single isomer, unassigned) [Example 120], the IC50 is 1200 nM.
As for `NS(=O)(=NC(=O)Nc1c2c(cc3c1CC3)CCC2)c1cnn2c1OCCC2` (single isomer, unassigned) [Example 141], the IC50 is 1600 nM.
Consider `NS(=O)(=NC(=O)Nc1c2c(cc3c1CC3)CCC2)c1cnn2c1OCCC2` (single isomer, unassigned) [Example 142], for which the IC50 worked out at 84 nM.
`CNC1CCOc2c(S(N)(=O)=NC(=O)Nc3c4c(cc5c3CCC5)CCC4)cnn2C1` (single isomer, unassigned) [Example 105]: the IC50 was 9900 nM.
Next, `CCn1nc(C(C)C)c(NC(=O)N=S(N)(=O)c2cnn3c2OCCC3)c1C(C)C` (single isomer, unassigned) [Example 99]: 1700 nM; `CNCc1cc(C(C)C)c(NC(=O)N=S(N)(=O)c2cnn3c2OCCC3)c(C(C)C)n1` (single isomer, unassigned) [Example 85]: > 20000 nM; `CC1(C)COc2c(S(N)(=O)=NC(=O)Nc3c4c(cc5c3CCC5)CCC4)cnn2C1` (single isomer, unassigned) [Example 81]: 20 nM.
The same measure for `CC(C)c1nn(CC2CC2)c(C(C)C)c1NC(=O)N=S(N)(=O)c1cnn2c1OCCC2` (single isomer, unassigned) [Example 114]: 4400 nM.
The same measure for `NS(=O)(=NC(=O)Nc1c2c(cc3c1CCC3)CCC2)c1cnn2c1C(F)(F)CCC2` (single isomer, unassigned) [Example 133]: 2800 nM; for `CNCCOc1cc(C(C)C)c(NC(=O)N=S(N)(=O)c2cnn3c2OCCC3)c(C(C)C)n1` (single isomer, unassigned) [Example 71]: > 20000 nM; for `CC1CCc2cc3c(c(NC(=O)N=S(N)(=O)c4cnn5c4OCCC5)c21)CCC3` (single isomer, unassigned) [Example 128]: 1700 nM.
As to `CNC1CCn2ncc(S(N)(=O)=NC(=O)Nc3c4c(cc5c3CCC5)CCC4)c2OC1` (single isomer, unassigned) [Example 131], the IC50 was 920 nM.
The same measure for `COc1cc(-c2ccc(NC(=O)N=S(N)(=O)c3cnn4c3OCC(OC)C4)c3c2CCC3)ccn1` (single isomer, unassigned) [Example 151]: > 20000 nM; for `CC(C)c1nn(CC(F)F)c(C(C)C)c1NC(=O)N=S(N)(=O)c1cnn2c1OCCC2` (single isomer, unassigned) [Example 97]: 1300 nM.
Next, `NS(=O)(=NC(=O)Nc1c2c(cc3c1CCC3)CCC2)c1cnn2c1OCC2` (single isomer, unassigned) [Example 125]: 1700 nM; `COC1COc2c(S(N)(=O)=NC(=O)Nc3c4c(cc5c3C(C)CC5)CCC4)cnn2C1` (single isomer, unassigned) [Example 148]: 710 nM.
On to `CC1CCc2cc3c(c(NC(=O)N=S(N)(=O)c4cnn5c4OCCC5)c21)CCC3` (single isomer, unassigned) [Example 127], for which the IC50 was determined as 3300 nM.
The same measure for `NS(=O)(=NC(=O)Nc1c2c(cc3c1CCC3)CCC2)c1cnn2c1CCOCC2` (single isomer, unassigned) [Example 117]: 4300 nM.
On to `COc1cc(-c2ccc3c(c2NC(=O)N=S(N)(=O)c2cnn4c2OCCC4)CCO3)ccn1` (single isomer, unassigned) [Example 158], for which the IC50 came out at 25 nM.
The same measure for `CNC1COc2c(S(N)(=O)=NC(=O)Nc3c4c(c(F)c5c3CCC5)CCC4)cnn2C1` (single isomer, unassigned) [Example 83]: 8 nM.
The same measure for `CO[C@@H]1CCOc2c([S@@](=O)(=NC(=O)Nc3c4c(cc5c3CCC5)CCC4)NC#N)cnn2C1` (single isomer, unassigned) [Example 122]: 800 nM; for `COC1CCOc2c(S(N)(=O)=NC(=O)Nc3c4c(cc5c3CCC5)CCC4)cnn2C1` (single isomer, unassigned) [Example 90]: 320 nM; for `CNCc1cc(C(C)C)c(NC(=O)N=S(N)(=O)c2cnn3c2OCCC3)c(C(C)C)n1` (single isomer, unassigned) [Example 84]: > 20000 nM.
The same measure for `CC1CCn2ncc(S(N)(=O)=NC(=O)Nc3c4c(cc5c3CCC5)CCC4)c2OC1` (single isomer, unassigned) [Example 78]: 93 nM; for `CC1(C)COc2c(S(N)(=O)=NC(=O)Nc3c4c(cc5c3CC(F)C5)CCC4)cnn2C1` (single isomer, unassigned) [Example 156]: 13 nM.
Turning to `CNC1CCn2ncc(S(N)(=O)=NC(=O)Nc3c4c(cc5c3CCC5)CCC4)c2OC1` (single isomer, unassigned) [Example 132], the IC50 was 1200 nM.
The same measure for `CCn1nc(C(C)C)c(NC(=O)N=S(N)(=O)c2cnn3c2OCCC3)c1C(C)C` (single isomer, unassigned) [Example 98]: > 20000 nM.
The same measure for `CC1CCn2ncc(S(N)(=O)=NC(=O)Nc3c4c(cc5c3CCC5)CCC4)c2OC1` (single isomer, unassigned) [Example 74]: > 20000 nM; for `CC1(C)COc2c(S(=O)(=NC(=O)Nc3c4c(cc5c3CCC5)CCC4)NC#N)cnn2C1` (racemic) [Example 94, N-cyano-N′-((1,2,3,5,6,7-hexahydro-s-indacen-4-yl)carbamoyl)-6,6-dimethyl-6,7-dihydro-5H-pyrazolo[5,1-b][1,3]oxazine-3-sulfonimidamide]: 360 nM; for `COC1COc2c(S(N)(=O)=NC(=O)Nc3c4c(cc5c3C(C)CC5)CCC4)cnn2C1` (single isomer, unassigned) [Example 149]: 650 nM.
As to `COC1CCOc2c(S(N)(=O)=NC(=O)Nc3c4c(cc5c3CCC5)CCC4)cnn2C1` (single isomer, unassigned) [Example 89], the IC50 was > 20000 nM.
